Reference: publication PMC11860020, “Rational Design and Synthesis of a Novel Series of Thiosemicarbazone-Containing Quinazoline Derivatives as Potential VEGFR2 Inhibitors” (Pharmaceutics, 2025)
Read-outs that look alike come from different tables or passages of the source.

How the values were obtained:
Ea.Hy926 cells [1] = test: Wound healing (scratch) assay; assay type: cell-based, human; conditions: 12 h
Protocol: Confluent Ea.Hy926 monolayers were formed by seeding the cells for 24 h in a 12-well plate incubated in a starvation medium. After the confluency was reached, the medium was removed and a scratch was performed using the sterile tip of a 100 µL pipette. Detached cells were removed by washing the cellular monolayers twice with DPBS, and then the cells were photographed individually (phase-contrast microscopy, 10x objective) to assess the wound area at the moment of exposure (T0). […] For each experiment, an image was captured 12 h post-exposure (T12), and the rate of Ea.Hy926 cell migration was quantitatively evaluated by the wound healing percentage (%) calculated by the formula (AT0 − AT12)/ AT0 × 100 [35]. The scratch areas at T0 (AT0) and T12 (AT12), respectively, were determined with the IKOSA Prisma Application Wound Healing (Scratch) assay (v2.2.0) and are expressed as square pixels (Px^2).

[2] = tested on: chick chorioallantoic egg membrane (CAM); test: Chorioallantoic egg membrane (CAM) assay; assay type: in vivo; conditions: 1 µM, 5 µM and 10 µM, 5-day protocol
Protocol: Eggs without deformities and weighing between 50 and 60 g were selected. The eggs were cleaned with 70% alcohol and incubated for 14 days in standard conditions (37.5 °C, humidity 65%). On the 4th day of incubation, approximately 10–12 mL of egg white (albumen) was extracted from the top of each egg using a medical syringe with a needle for the detachment of the egg membrane. On the 5th day, the eggs were checked for fertility using a light source, and a window large enough to reveal the vascular plexus was cut out with forceps. The window was then sealed with medical tape to maintain favorable conditions for embryonic development. Optimal ventilation conditions, temperature, and humidity were ensured throughout incubation to facilitate proper embryo growth. […] For this purpose, a transparent silicone ring was applied to the vascular plexus of the CAM using a tweezer. In this ring, 10 μL of each test sample was applied for 4 days. […] Pictures were taken daily (days 1–5 of exposure) to observe the effects of the samples on the angiogenic process, and the changes observed were noted. For microscopic analysis, a Zeiss SteREO Discovery.V8 stereomicroscope was used, coupled with a Zeiss Axiocam 105 digital camera, both connected to a computer. The images presented in this study were captured using the ZEN core 3.8 software. The scale bar from the images represents a measurement of 500 μm.

A375 cells = test: Alamar Blue cytotoxicity on A375 cells; assay type: cell-based, human; conditions: for IC50: Homo sapiens, read-out: IC50 A375; for Selectivity Index SIb: SIb = IC50 HaCaT/IC50 A375
Protocol: (§1) To the growth media of all the cell lines, 1% penicillin/streptomycin and 10% FBS were added. The cell lines were cultured in standardized conditions (37 °C and 5% CO2) with the initiation of the experimental protocol once an 80–90% confluency was reached.
(§2) The spectrophotometric quantification (λemission = 590/35, λexcitation = 530/25) of resorufin by the metabolic-dependent conversion of the resazurin by the viable cells was achieved using the microplate reader Synergy 2 Multi-Mode. The cells were seeded in 100 µL of growth media in 96-well plates at the specified density (Ea.Hy296—5 × 10^3 cells/well, HaCaT—8 × 10^3 cells /well, and A375—7 × 10^3 cells /well) and were left overnight to attach. […] After 48 h of cultivation, the growth media was removed, and the AB assay was performed for the quantification of the viable cells post-exposure to the selected compounds. Three biological replicates were performed for each biological experiment with six technical replicates, using 0.2% DMSO as the negative control (NC) for data normalization (100% viability). The IC50 values were calculated based on the dose–cellular viability curve ratio obtained by fitting the experimental data with a 4-parameter logistic curve (SigmaPlot 11).

Ea.Hy926 cells [3] = test: Alamar Blue cytotoxicity on Ea.Hy926 cells; conditions: for IC50: read-out: IC50 EA.hy926, 48 h exposure, Alamar Blue; for Selectivity Index SIa: SIa = IC50 HaCaT/IC50 EA.hy296
Protocol: as §1, §2

HaCaT cells = test: Alamar Blue cytotoxicity on HaCaT cells; assay type: cell-based; conditions: Homo sapiens, read-out: IC50 HaCaT
Protocol: as §1, §2

Human VEGFR-2 (KDR) = biological target: T1, Human VEGFR-2 (KDR) (Homo sapiens, UniProt P35968); test: In vitro VEGFR2 kinase inhibition assay; assay type: biochemical; conditions: for IC50: isolated kinase domain, 45 min at 30 °C; for inhibition at 0.5 µM: read-out: VEGFR2 Kinase Inhibitory Activity % of Inhibition (500 nM)
T1 construct: purchased BPS Bioscience 40325
T1 sequence (P35968 805-1356): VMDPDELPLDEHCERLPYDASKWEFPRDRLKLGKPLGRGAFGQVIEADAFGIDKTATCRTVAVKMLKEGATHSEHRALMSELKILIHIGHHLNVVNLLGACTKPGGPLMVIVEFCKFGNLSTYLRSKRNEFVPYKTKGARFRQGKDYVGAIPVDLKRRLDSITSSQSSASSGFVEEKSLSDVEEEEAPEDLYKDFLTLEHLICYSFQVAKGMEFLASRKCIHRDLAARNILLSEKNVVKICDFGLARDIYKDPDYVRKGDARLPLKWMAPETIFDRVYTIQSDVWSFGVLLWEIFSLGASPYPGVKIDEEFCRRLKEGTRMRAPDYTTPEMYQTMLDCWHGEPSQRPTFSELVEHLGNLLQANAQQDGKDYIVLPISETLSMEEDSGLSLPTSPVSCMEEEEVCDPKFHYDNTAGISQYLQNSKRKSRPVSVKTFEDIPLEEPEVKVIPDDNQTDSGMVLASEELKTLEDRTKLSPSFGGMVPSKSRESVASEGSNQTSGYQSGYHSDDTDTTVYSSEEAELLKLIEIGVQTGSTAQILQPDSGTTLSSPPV
Protocol: The experimental assay was conducted according to the manufacturer’s instructions. […] The incubation time was set for 45 min at 30 °C. Inhibitory potential towards the kinase domain was quantified by luminescence detection, after the addition of the Kinase-Glo™ MAX reagent (Promega, Madison, WI, USA, catalog #v6071). After further incubation for an additional 15 min, the luminescence was recorded using a microplate reader Synergy 2 Multi-Mode.

[4] = A-375, 48 h exposure, Alamar Blue

| Structure (SMILES) | inhibition of the mobility of Ea.Hy296 cells (Ea.Hy926 cells [1]; 5 µM) | anti-angiogenic effect in CAM [2] | IC50 (A375 cells; A-375, 48 h) | IC50 (Ea.Hy926 cells [3]) | IC50 (HaCaT cells; 48 h) | IC50 (A375 cells; [4]) | Selectivity Index SIa (Ea.Hy926 cells [3]) | IC50 (Human VEGFR-2 (KDR)) | inhibition at 0.5 µM (Human VEGFR-2 (KDR)) | IC50 (HaCaT cells; 48 h exposure, Alamar Blue) | Selectivity Index SIb (A375 cells) | motility inhibition potential (Ea.Hy926 cells [1]; 1.25-5 µM, versus 0.2% DMSO) | cytotoxic potential relative to sorafenib (Ea.Hy926 cells [3]; Ea.Hy296 cells, 48 h) | reduction in the wound closure area (Ea.Hy926 cells [1]; highest evaluated concentration (TSC9 12.5 µM, TSC10 7.5 µM)) |
| --- | --- | --- | --- | --- | --- | --- | --- | --- | --- | --- | --- | --- | --- | --- |
| CNC(=O)c1cc(Oc2ccc(NC(=O)Nc3ccc(Cl)c(C(F)(F)F)c3)cc2)ccn1 [Sorafenib, sorafenib, reference compound] | almost total inhibition | potent anti-angiogenic effect was observed across all three tested concentrations | 5.26 µM | 10.2 µM | 12.9 µM | – | – | – | – | – | – | – | – | – |
| C=CCNC(=S)NN=Cc1ccc(Oc2ncnc3cc(OC)c(OC)cc23)cc1 [TSC1, N-allyl-2-(4-((6,7-dimethoxyquinazolin-4-yl)oxy)benzylidene)hydrazine-1-carbothioamide] | – | – | – | – | – | > 100 µM | 2.00 | 389 nM | 52.7% | ~100 µM | – | – | – | – |
| COc1cc2ncnc(Oc3ccc(/C=N/NC(=S)Nc4cccc(C(F)(F)F)c4)cc3)c2cc1OC [TSC2, N-(3-(trifluoromethyl)-phenyl)-2-(4-((6,7-dimethoxyquinazolin-4-yl)oxy)benzylidene)-hyrazine-1-carbothioamide] | – | – | – | > 100 µM | – | > 100 µM | – | 341 nM | 59.5% | > 100 µM | – | – | – | – |
| COc1cc2ncnc(Oc3ccc(C=NNC(=S)Nc4ccc(F)cc4)cc3)c2cc1OC [TSC3, N-(4-fluorophenyl)-2-(4-((6,7-dimethoxyquinazolin-4-yl)oxy)benzylidene)hydrazine-1-carbothioamide] | – | – | – | 26.5 µM | – | > 100 µM | 1.08 | 239 nM | 62.1% | 28.6 µM | – | – | – | – |
| COc1cc2ncnc(Oc3ccc(C=NNC(=S)Nc4ccc(Cl)cc4)cc3)c2cc1OC [TSC4, N-(4-chlorophenyl)-2-(4-((6,7-dimethoxyquinazolin-4-yl)oxy)benzylidene)hydrazine-1-carbothioamide] | – | – | – | 14.5 µM | – | 14.8 µM | 1.10 | – | 40.5% | 15.9 µM | 1.08 | – | – | – |
| COc1cc2ncnc(Oc3ccc(C=NNC(=S)Nc4ccccc4)cc3)c2cc1OC [TSC5, N-phenyl-2-(4-((6,7-dimethoxyquinazolin-4-yl)oxy)benzylidene)hydrazine-1-carbothioamide] | – | pronounced decrease in CAM vascularization | – | 7.47 µM | – | 17.4 µM | 2.20 | 378 nM | 71% | 16.4 µM | 0.95 | 11.19–12.82% | 1.35 fold | – |
| COc1cc2ncnc(Oc3ccc(C=NNC(=S)Nc4ccc(Cl)c(C(F)(F)F)c4)cc3)c2cc1OC [TSC6, N-(4-chloro-3-(trifluoromethyl)phenyl)-2-(4-((6,7-dimethoxyquinazolin-4-yl)oxy)benzylidene)hydrazine-1-carbothioamide] | – | – | – | 16.5 µM | – | 61 µM | 1.40 | – | 0% | 23 µM | 0.38 | – | – | – |
| COc1cc2ncnc(Oc3ccc(C=NNC(=S)Nc4ccc(F)c(F)c4)cc3)c2cc1OC [TSC7, N-(3,4-difluorophenyl)-2-(4-((6,7-dimethoxyquinazolin-4-yl)oxy)benzylidene)hydrazine-1-carbothioamide] | – | – | – | 43.2 µM | – | > 100 µM | 1.25 | – | 21.1% | 53.8 µM | – | – | – | – |
| COc1cccc(NC(=S)NN=Cc2ccc(Oc3ncnc4cc(OC)c(OC)cc34)cc2)c1 [TSC8, N-(3-methoxyphenyl)-2-(4-((6,7-dimethoxyquinazolin-4-yl)oxy)benzylidene)hydrazine-1-carbothioamide] | – | – | – | > 100 µM | – | > 100 µM | – | – | 0% | > 100 µM | – | – | – | – |
| COc1cc2ncnc(Oc3ccc(C=NNC(=S)NC(C)C)cc3)c2cc1OC [TSC9, N-isopropyl-2-(4-((6,7-dimethoxyquinazolin-4-yl)oxy)benzylidene)hydrazine-1-carbothioamide] | – | anti-angiogenic properties were also demonstrated across all three tested concentrations | – | 12.6 µM | – | > 100 µM | 6.90 | 379 nM | 70.5% | 86.8 µM | – | – | – | 25.63% |
| COc1cc2ncnc(Oc3ccc(/C=N/NC(=S)Nc4cccc(Cl)c4Cl)cc3)c2cc1OC [TSC10, (E)-N-(2,3-dichlorophenyl)-2-(4-((6,7-dimethoxyquinazolin-4-yl)oxy)benzylidene)hydrazine-1-carbothioamide] | – | potent anti-angiogenic properties were observed | – | 12.8 µM | – | 28.6 µM | 4.09 | 119 nM | 89.1% | 52.4 µM | 1.83 | – | – | – |
